Records with an inconclusive call do not appear. Activity calls are given as the source filed them. The rule behind the calls is not given here.

The first assay has as its system LMP1-induced NF-kappaB luciferase reporter cells, luminescence. Kind of assay: LMP1-driven NF-kB reporter inhibition, dose response, cell-based, luciferase reporter, luminescence, dry powder, set 2 (AID 624376).
Settings: not given
Consider `O=C(C[C@H]1C[C@@H]2c3cc(NS(=O)(=O)c4ccc(F)cc4)ccc3O[C@@H]2[C@@H](CO)O1)NCc1ccc(Oc2ccccc2)cc1`, for which the AC50 was 13.5 µM.
On the same count and under the same terms, in the case of `Cc1ccc(S(=O)(=O)N(C)C[C@H]2Oc3cc(C#Cc4ccncc4)ccc3S(=O)(=O)N([C@@H](C)CO)C[C@H]2C)cc1` it was 21.4 µM; in that of `O=C(C[C@@H]1CC[C@@H]2[C@H](COC[C@@H](O)CN2Cc2ccc(Oc3ccccc3)cc2)O1)N1CCc2ccccc2C1`, 16.4 µM.
The same measure, in the same setting: next, `O=C(C[C@@H]1C[C@H]2c3cc(NS(=O)(=O)c4ccc(F)cc4)ccc3O[C@H]2[C@@H](CO)O1)NCc1ccc(Oc2ccccc2)cc1`: 15.3 µM; `CN(C)C(=O)c1cccc(-c2cccc(-c3nc(C(=O)NCc4ccccc4)cc4c3[C@@H](CCO)N([S@](=O)C(C)(C)C)C4)c2)c1`: 16.9 µM.
On the same count and under the same terms, next, `COc1ccccc1C#Cc1ccc([C@H]2[C@H](C#N)N(C(=O)C3CC3)[C@H]2CO)cc1`: 30.5 µM; `O=C(C[C@@H]1CC[C@@H]2[C@H](COC[C@H](O)CN2Cc2ccc3c(c2)OCO3)O1)Nc1ccc(-c2ccccc2)cc1`: 7.97 µM.
As for `COc1ccccc1C#Cc1cnc2c(c1)C(=O)N([C@@H](C)CO)C[C@H](C)[C@@H](CN(C)C(=O)c1ccc3c(c1)OCO3)O2`, the AC50 is 25.9 µM.
Turning to `O=C(C[C@@H]1CC[C@@H]2[C@H](COC[C@@H](O)CN2Cc2ccc3c(c2)OCO3)O1)Nc1ccc(-c2ccccc2)cc1`, the AC50 is 10.2 µM.
On the same count and under the same terms, next, `COc1cccc(C#Cc2ccc([C@@H]3[C@H](C#N)N(C(=O)c4ccccn4)[C@H]3CO)cc2)c1`: 29.5 µM; `CC(C)(C)[S@@](=O)N1Cc2cc(C(=O)NCc3ccccc3F)nc(-c3cccc(-c4cccnc4)c3)c2[C@H]1CCO`: 35.6 µM; `C[C@H]1CN([C@@H](C)CO)C(=O)c2cc(C#Cc3ccccc3F)cnc2O[C@@H]1CN(C)C(=O)C1CCCCC1`: 27.7 µM.
The same measure, in the same setting: next, `O=C(C[C@@H]1CC[C@H]2[C@@H](COC[C@H](O)CN2Cc2ccc(Oc3ccccc3)cc2)O1)N1CCc2ccccc2C1`: 19.7 µM; `O=C(C[C@H]1C[C@H]2c3cc(NC(=O)c4ccc5c(c4)OCO5)ccc3O[C@H]2[C@H](CO)O1)NCc1ccc(Oc2ccccc2)cc1`: 18.7 µM.
As to `COc1ccccc1C#Cc1ccc2c(c1)O[C@H](CN(C)Cc1cccnc1)[C@@H](C)CN([C@@H](C)CO)S2(=O)=O`, the AC50 was 13.9 µM.
On the same count and under the same terms, next, `COc1ccccc1C#Cc1ccc2c(c1)O[C@H](CN(C)Cc1cccnc1)[C@H](C)CN([C@@H](C)CO)S2(=O)=O`: 17.4 µM; `CCCNC(=O)c1cc2c(c(-c3cccc(-c4cccc(F)c4)c3)n1)[C@H](CCO)N([S@@](=O)C(C)(C)C)C2`: 22.7 µM; `Cc1cc(C(=O)Nc2ccc3c(c2)C(=O)N(C)[C@@H]2CC[C@@H](CC(=O)NCc4ccc(-c5ccccc5)cc4)O[C@H]2CO3)no1`: 25.9 µM.
With `CN1C(=O)c2cc(NC(=O)Cc3cccs3)ccc2OC[C@@H]2O[C@H](CC(=O)NCc3ccc(-c4ccccc4)cc3)CC[C@H]21`, the AC50 is 33 µM.
Same read-out and setting: next, `Cc1cc(C(=O)Nc2ccc3c(c2)C(=O)N(C)[C@@H]2CC[C@H](CC(=O)NCc4ccc(-c5ccccc5)cc4)O[C@@H]2CO3)no1`: 9.74 µM; `COc1ccccc1C#Cc1ccc2c(c1)O[C@H](CN(C)Cc1cccnc1)[C@H](C)CN([C@H](C)CO)S2(=O)=O`: 22.9 µM; `CN(C)c1ccc2c(c1)[C@@H]1C[C@H](CC(=O)NCc3ccc(Oc4ccccc4)cc3)O[C@@H](CO)[C@@H]1O2`: 9.81 µM.
Still for that read-out and setting: next, `CC(C)NC(=O)N1Cc2cc(C(=O)NC3Cc4ccccc4C3)nc(-c3cccc(-c4cccnc4)c3)c2[C@H]1CCO`: 33.6 µM; `N#C[C@H]1[C@H](c2ccc(C#Cc3ccccc3F)cc2)[C@@H](CO)N1C(=O)c1cccnc1`: 15 µM.
Still for that read-out and setting: in the case of `C[C@H]1CN([C@@H](C)CO)S(=O)(=O)c2ccc(C#Cc3ccncc3)cc2O[C@H]1CN(C)C(=O)Nc1ccc2c(c1)OCO2` it was 19.7 µM; in that of `O=C(C[C@H]1CC[C@H]2[C@@H](COC[C@@H](O)CN2Cc2ccc3c(c2)OCO3)O1)Nc1ccc(-c2ccccc2)cc1`, 24.1 µM.
For `O=C(Nc1ccc(C(F)(F)F)cc1)Nc1ccc2c(c1)[C@H]1C[C@@H](CC(=O)N3CCc4ccccc4C3)O[C@@H](CO)[C@H]1O2`, the AC50 was 27.9 µM.
The same measure, in the same setting: next, `CC(C)(C)[S@](=O)N1Cc2cc(C(=O)NCC(F)(F)F)nc(-c3cccc(-c4cccc(F)c4)c3)c2[C@@H]1CCO`: 11.9 µM.
The same measure, in the same setting: in the case of `O=C(Nc1ccc(C(F)(F)F)cc1)Nc1ccc2c(c1)[C@@H]1C[C@H](CC(=O)N3CCc4ccccc4C3)O[C@@H](CO)[C@@H]1O2` it was 15.1 µM.
On to `CN(C)C(=O)c1ccc(-c2cccc(-c3nc(C(=O)NCc4ccccc4)cc4c3[C@@H](CCO)N([S@](=O)C(C)(C)C)C4)c2)cc1`, for which the half-maximal activity concentration (AC50) was 13.7 µM.
For `N#C[C@H]1[C@H](c2ccc(C#Cc3ccccc3F)cc2)[C@H](CO)N1C(=O)c1cccnc1`, the AC50 is 12.6 µM.
The same measure, in the same setting: next, `O=C(C[C@@H]1C[C@@H]2c3cc(NC(=O)c4ccc5c(c4)OCO5)ccc3O[C@@H]2[C@@H](CO)O1)NCc1ccc(Oc2ccccc2)cc1`: 9.85 µM; `O=C(C[C@@H]1C[C@@H]2c3cc(NS(=O)(=O)c4ccc(F)cc4)ccc3O[C@@H]2[C@@H](CO)O1)NCc1ccc(Oc2ccccc2)cc1`: 8.07 µM; `CC(C)NC(=O)N1Cc2cc(C(=O)NC3Cc4ccccc4C3)nc(-c3cccc(-c4cccnc4)c3)c2[C@@H]1CCO`: 22 µM.
Same read-out and setting: in the case of `CN(C)c1ccc2c(c1)[C@@H]1C[C@@H](CC(=O)NCc3ccc(Oc4ccccc4)cc3)O[C@H](CO)[C@@H]1O2` it was 21.6 µM.
On the same count and under the same terms, next, `COc1cccc(C#Cc2ccc([C@@H]3[C@@H](C#N)N(C(=O)c4ccccn4)[C@@H]3CO)cc2)c1`: 19.2 µM; `C[C@@H]1CN([C@@H](C)CO)S(=O)(=O)c2ccc(C#Cc3ccncc3)cc2O[C@H]1CN(C)C(=O)Nc1ccc2c(c1)OCO2`: 31.6 µM.

Test system in a further assay: not listed separately
The assay is described as above. To be noted: LMP1-induced NF-kappaB luciferase reporter cells, luminescence; at 16 µM (top of the series). Background: Reporter assays use an easily measured gene product as a stand-in for the process of interest.
With `Cc1noc(C)c1S(=O)(=O)Nc1ccc2c(c1)C(=O)N([C@H](C)CO)C[C@H](C)[C@H](CN(C)Cc1ccc(C(F)(F)F)cc1)OCCCC[C@H](C)O2`, the activity change, negative = inhibition is -0.443% (inactive).

Staying with this assay, now noted: LMP1-induced NF-kappaB luciferase reporter cells, luminescence; at 35 µM (top of the series).
For `Cc1noc(C)c1S(=O)(=O)Nc1ccc2c(c1)C(=O)N([C@@H](C)CO)C[C@H](C)[C@@H](CN(C)Cc1ccc(C(F)(F)F)cc1)OCCCC[C@H](C)O2`, the activity change, negative = inhibition is -1.9% (inactive).
Consider `C[C@H](NC(=O)C[C@H]1C=C[C@H](NC(=O)Cc2ccccn2)[C@@H](CO)O1)c1ccccc1`, for which the activity change, negative = inhibition was 10.7% (inactive).
The same measure, in the same setting: in the case of `C[C@@H](NC(=O)C[C@H]1C=C[C@H](NC(=O)Cc2ccccn2)[C@@H](CO)O1)c1ccccc1` it was 2.05% (inactive); in that of `COC(=O)C[C@H]1C[C@H]2c3cc(NC(=O)CN(C)C)ccc3O[C@H]2[C@H](CO)O1`, -9.49% (inactive).
As to `Cc1noc(C)c1S(=O)(=O)Nc1ccc2c(c1)C(=O)N([C@@H](C)CO)C[C@H](C)[C@H](CN(C)Cc1ccc(C(F)(F)F)cc1)OCCCC[C@H](C)O2`, the activity change, negative = inhibition is -10.2% (inactive).
For the molecule `Cc1noc(C)c1S(=O)(=O)Nc1ccc2c(c1)C(=O)N([C@H](C)CO)C[C@H](C)[C@@H](CN(C)Cc1ccc(C(F)(F)F)cc1)OCCCC[C@H](C)O2`, the activity change, negative = inhibition is 27.4% (inactive).

What is called AC50 is the concentration giving half of the maximal activity seen.

These data come from PubChem BioAssay AID624376 (Broad Institute, 2012).
